Experimental data as given in patent US7723307B2, “Amino acid derivatives and pharmaceutical uses thereof” (Aston University, priority 2003, dated 2010).

Assays:
tissue transglutaminase = molecular target: T1, tissue transglutaminase (UniProt P08587); test: TGase-mediated crosslinking of fibronectin, SDS-PAGE; assay type: biochemical; conditions: compound 250 μM, TGase and fibronectin 50 μg/ml each, 37° C. for 2 hr
T1 sequence (P08587 1-690): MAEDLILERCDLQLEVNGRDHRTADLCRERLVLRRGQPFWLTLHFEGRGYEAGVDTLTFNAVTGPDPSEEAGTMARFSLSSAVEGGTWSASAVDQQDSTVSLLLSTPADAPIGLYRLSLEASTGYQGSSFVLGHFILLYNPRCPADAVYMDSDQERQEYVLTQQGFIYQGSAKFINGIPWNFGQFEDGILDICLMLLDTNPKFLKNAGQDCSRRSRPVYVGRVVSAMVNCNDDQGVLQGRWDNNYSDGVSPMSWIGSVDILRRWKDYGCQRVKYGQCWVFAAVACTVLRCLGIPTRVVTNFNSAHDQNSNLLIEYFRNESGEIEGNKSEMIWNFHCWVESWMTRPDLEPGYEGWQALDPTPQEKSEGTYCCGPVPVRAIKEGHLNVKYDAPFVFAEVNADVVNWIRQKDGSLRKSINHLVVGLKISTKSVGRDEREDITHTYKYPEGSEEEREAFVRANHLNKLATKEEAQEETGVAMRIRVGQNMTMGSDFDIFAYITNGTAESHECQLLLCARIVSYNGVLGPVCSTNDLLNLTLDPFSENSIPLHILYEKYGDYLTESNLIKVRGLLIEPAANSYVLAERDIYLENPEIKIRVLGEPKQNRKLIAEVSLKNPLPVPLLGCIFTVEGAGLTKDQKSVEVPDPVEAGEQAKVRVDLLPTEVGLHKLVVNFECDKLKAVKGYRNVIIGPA
Protocol: • 1. Preactivate TGase in 3 mM DTT (where applicable) on ice for 1 hr. • 2. Crosslink TGase with fibronectin in 40 mM Tris/100 mM NaCl at 50 μg/ml final concentration each, according to Table 1 below. Include non-activated Tgase/preactivated Tgase controls in the presence and absence of the inhibitors to investigate potential homodimer formation. • 3. Incubate at 37° C. for 2 hr to allow crosslink formation to take place. • 4. Solubilise crosslink in 2× Laemmli buffer. Vortex and spin down insoluble material. • 5. Load 20 μg of total protein (Tgase+Fn) on a 7% acrylamide SDS PAGE gel. Run gel at […] until dye escapes from the bottom of the gel. • 6. Stain with coomassie brilliant blue for 1 hr at RT. • 7. De-stain in 30% methanol/10% acetic acid at RT.
SDS-PAGE data showing tTGase-mediated crosslinking of fibronectin following treatment with exemplary compounds of the invention is shown in FIG. 22.

TGase [1] = test: 14C-putrescine incorporation into N,N'-dimethyl casein in kidney homogenates of treated SNx rats; assay type: in vivo, rat; conditions: day 84
Source text: (§1) Male Wistar rat of approximately 300 g weight was anaesthetised using 5% halothane and maintained at 3% for the duration of the surgical procedure. The rat was subjected to a ⅚th subtotal nephrectomy (SNx) by ligation of the left renal artery and vein followed by complete nephrectomy of the left kidney. The right kidney had both the upper and lower poles ligated followed by excision of both poles. A 9-cm cannula (0.32 mm bore) was sealed on one end and fenestrated between 3 and 12 mm from the sealed end. This was then inserted through the parenchyma (cut to cut/pole to pole) of the kidney so that the blunt end was just visible through one of the cut ends. This was then sealed in position using tissue glue on both ends of the kidney such that the fenestrated area was within the remnant kidney. The cannula was passed through the muscle wall, which was then stitched using reabsorbable sutures. The cannula was then attached to the regulator of a 2 ml osmotic minipump (Azlet osmotic minipump (2 ml4), Charles Rivers, UK) that was loaded (primed for 15 hrs at RT) with either PBS (SNx) or TGase inhibitor 281 or 283 (SNx+281 and SNx+283, respectively) at a concentration of 50 mM (delivery 1.5 μl per hour). The pump was then positioned subcutaneously on the right upper flank of the animal and the skin sutured. […]

TGase [2] = test: In situ TGase activity in kidney cryostat sections of treated SNx rats; assay type: in vivo, rat; conditions: SNx rats treated for 28 days, biotin cadaverine incorporation
Source text: as §1, with “sutures.” for “sutures. The cannula was then attached to the regulator of a 2 ml osmotic minipump (Azlet osmotic minipump (2 ml4), Charles Rivers, UK) that was loaded (primed for 15 hrs at RT) with either PBS (SNx) or TGase inhibitor 281 or 283 (SNx+281 and SNx+283, respectively) at a concentration of 50 mM (delivery 1.5 μl per hour). The pump was then positioned subcutaneously on the right upper flank of the animal and the skin sutured.”
Rat kidneys treated in vivo with TGase inhibitors were snap-frozen in liquid nitrogen and 14 μm sections were cut using a cryostat and allowed to air-dry. […] Slides were viewed on a Leica TCSNT confocal microscope equipped with excitation and emission filters for Cy5, and emitted fluorescence was quantified with the software supplied by the manufacturer. […]

SNx rats = test: Renal function in subtotal nephrectomy (SNx) rats with inhibitor instilled into the kidney by osmotic minipump; assay type: in vivo, rat; conditions: 90 day SNx rats, inhibitor 50 mM instilled into kidney, 5 animals per group
Source text: Male Wistar rat of approximately 300 g weight was anaesthetised using 5% halothane and maintained at 3% for the duration of the surgical procedure. The rat was subjected to a ⅚th subtotal nephrectomy (SNx) by ligation of the left renal artery and vein followed by complete nephrectomy of the left kidney. The right kidney had both the upper and lower poles ligated followed by excision of both poles. A 9-cm cannula (0.32 mm bore) was sealed on one end and fenestrated between 3 and 12 mm from the sealed end. This was then inserted through the parenchyma (cut to cut/pole to pole) of the kidney so that the blunt end was just visible through one of the cut ends. This was then sealed in position using tissue glue on both ends of the kidney such that the fenestrated area was within the remnant kidney. The cannula was passed through the muscle wall, which was then stitched using reabsorbable sutures. The cannula was then attached to the regulator of a 2 ml osmotic minipump (Azlet osmotic minipump (2 ml4), Charles Rivers, UK) that was loaded (primed for 15 hrs at RT) with either PBS (SNx) or TGase inhibitor 281 or 283 (SNx+281 and SNx+283, respectively) at a concentration of 50 mM (delivery 1.5 μl per hour). The pump was then positioned subcutaneously on the right upper flank of the animal and the skin sutured. The animal was then switched onto oxygen and allowed to partially regain consciousness before being returned to the cage. The pump was changed every 28 days under halothane anaesthesia. […] The animal was then anaesthetised, the remnant kidney recovered and a terminal blood sample collected.
Proteinuria, creatinine clearance, serum clearance, urine creatinine and urine urea were carried out by standard clinical chemistry techniques (Johnson et al., 1997, J. Clin. Invest. 99:2950-2960). Creatinine and urea were measured by the standard autoanalyser technique and proteinura by the Biuret method (Johnson et al., supra). Data represent mean values ±SE, taken from 5 animals per group.

Row | Compound | tTGase-mediated crosslinking of fibronectin (FIG. 22) (tissue transglutaminase) | TGase activity by 14C-putrescine incorporation in kidney homogenates (FIG. 25b) (TGase [1]) | In situ TGase activity in kidney cryostat sections (FIG. 25a) (TGase [2]) | Proteinuria, Mean (SNx rats) | Serum creatinine, Mean (SNx rats) | Serum urea, Mean (SNx rats) | Urine creatinine, Mean (SNx rats) | Urine urea, Mean (SNx rats)
1 | C[S+](C)CC(=O)CCC(NC(=O)C(Cc1ccccc1)NC(=O)OCc1ccccc1)C(=O)O [Compound 281, N-Benzyloxycarbonyl-L-phenylalanyl-6-dimethylsulfonium-5-oxo-L-norleucine] | inhibition | inhibition | inhibition | 503 mg/24 h | 208 µM | 22.32 mM/L | 4000 µM | 372 mM/L
2 | CC(=O)CSc1n(C)cc[n+]1C.[Cl-] [Compound 283, 1,3-dimethyl-2-(2-oxopropylsulfanyl)-3H-1,3-diazol-1-ium-chloride, reference compound] | – | inhibition | inhibition | 835 mg/24 h | 114 µM | 16.3 mM/L | 3140 µM | 272 mM/L
3 | C[S+](C)CC(=O)CCC(NC(=O)C(CCC(N)=O)NC(=O)OCc1ccccc1)C(=O)O [Compound 285, N-Benzyloxycarbonyl-L-glutaminyl-6-dimethylsulfonium-5-oxo-L-norleucine] | inhibition | – | – | – | – | – | – | –
